Experimental data published in patent US20060210504A1, “Compositions and methods for inhibiting eccrine perspiration in humans” (priority 2001, published 2006).

Legend:
[1] = test system: healthy female volunteers; test: Safety and tolerance assessment on topical application to the axilla; type: in vivo, human
Method: (§1) The antiperspirant efficacy and safety of glycopyrrolate, a quaternary ammonium salt, was tested pursuant to protocol prescribed by the Food and Drug Administration, 21CFR Part 10.90 The OTC Antiperspirant Tentative Final Monograph. So as to separate vehicle from drug effects, glycopyrrolate was presented as a simple solution in varying concentrations of 0.3%, 1% and 3% weight per volume. In each treatment group as listed below, the glycopyrrolate solution and a placebo of distilled water were applied to the axilla of healthy female volunteers. In particular, the placebo was applied to one armpit while the test solution was applied to the other armpit of a given volunteer. The designation of armpits (namely, right or left) for the application of placebo vs. solution was randomized according to the FDA protocol. In the placebo Group B, distilled water was applied to both axilla of each volunteer. Treatments were applied once daily for five consecutive days.
(§2) The clinical study was conducted among 37 healthy female volunteers. The testing further conformed to ICH guidelines and the requirements of the 1964 Declaration of Helsinki and its subsequent amendments. The study was a pilot, single-center, randomized, controlled, double-blind assessment of the safety, tolerability and antiperspirant efficacy of glycopyrrolate when applied to the axilla of healthy female volunteers.
(§3) The antiperspirant efficacy evaluation was performed approximately one hour after the fifth treatment using a standard hot room protocol. Safety and tolerance were measured by assessment of blood chemistry and hematology, electrocardiograms, daily monitoring of heart rate, blood pressure and body temperature, assessment of visual effects and dermal irritancy, and subjective assessment of tolerance.

[2] = test system: sweat production in the axilla (eccrine sweat glands); test: Antiperspirant efficacy evaluation, standard hot room protocol (FDA OTC Antiperspirant Tentative Final Monograph); type: in vivo, human (healthy female volunteers); conditions: for mean reduction in sweat production: axilla, once daily for five days, about one hour after fifth treatment
Method: as §1
The groups comprised the following: • Group A—0.3% glycopyrrolate versus distilled water; • Group B—Placebo (distilled water applied to both axilla); • Group C—1% glycopyrrolate versus distilled water; • Group D—3% glycopyrrolate versus distilled water;
as §2
The study was conducted in two cohorts of volunteers. The first cohort comprised fourteen (14) subjects, with […] subjects assigned to placebo Group B and ten (10) subjects assigned to 0.3% Group A.
Nine (9) days following the completion of the first cohort, a second cohort of twenty-three (23) subjects were tested, with three (3) subjects assigned to placebo Group B, ten (10) subjects assigned to 1% Group C, and ten (10) subjects assigned to 3% Group D.
as §3

[3] = 0.3%, 1% and 3% w/v topical to axilla, once daily for five days
[4] = 1% w/v simple solution (Group C) vs distilled water
[5] = 3% w/v simple solution (Group D) vs distilled water

**Q.** For `C[N+]1(C)CCC(OC(=O)C(O)(c2ccccc2)C2CCCC2)C1` (stereo not drawn) [glycopyrrolate], which “pupillary dilation or other systemic symptoms of anticholinergic agents” value [1, 3] is on record?
**A.** no signs of pupillary dilation or other systemic symptoms

**Q.** And the serious adverse events [1, 3]?
**A.** No serious adverse events

**Q.** What about the “adverse events, clinical significance” value ([1]; reviewed by principal investigator and attendant cardiologist) of the same compound?
**A.** clinically non-significant

**Q.** And the “antiperspirant efficacy in words” value ([2]; 0.3% concentration)?
**A.** essentially ineffective

**Q.** What about the “inhibition enjoyed by two subjects” value ([2]; 0.3% concentration, two subjects) of the same compound?
**A.** 0.50 % inhibition

**Q.** What about the “statistical significance of reduction in sweat production” value (“statistical significance of reduction” for short) ([2]; 0.3% w/v simple solution (Group A) vs distilled water) of the same compound?
**A.** no statistically significant reduction in sweat production

**Q.** And the “binomial criteria of 95% confidence with at least 50% of the population showing at least 20% reduction in sweating” value ([2]; 1% group)?
**A.** met the binomial criteria

**Q.** What about the “range of effect (inhibition of sweating across subjects)” value ([2]; 1% treatment group) of the same compound?
**A.** −16-to 54 % inhibition

**Q.** And the “statistical significance of reduction” value [2, 4]?
**A.** significant sweat reduction

**Q.** What about the “mean reduction in sweat production” value [2, 4] of the same compound?
**A.** 32.85%±9.81

**Q.** And the “binomial criteria of 95% confidence with at least 50% of the population showing at least 20% reduction in sweating” value ([2]; 3% group)?
**A.** met the binomial criteria

**Q.** What about the “range of effect (inhibition of sweating across subjects)” value ([2]; 3% treatment group) of the same compound?
**A.** −13 to 90 % inhibition

**Q.** And the “statistical significance of reduction” value [2, 5]?
**A.** significant sweat reduction

**Q.** And the “mean reduction in sweat production” value [2, 5]?
**A.** 54.72%±20.23

**Q.** What about the “dose dependence of antiperspirant effect” value ([2]; simple solution, 0.3%, 1% and 3%, highest efficacy at 3%) of the same compound?
**A.** dose-dependent antiperspirant effect
